Experimental data published in patent US20250333421A1, “PYRIDAZINES OR 1,2,4-TRIAZINES SUBSTITUTED BY SPIROCYCLIC AMINES” (Janssen Pharmaceutica NV, priority 2021, published 2025).

What was measured:
[1] = test system: MOLM14 cells; assay: Proliferation assay (spheroid assay) in MOLM14; type: cell-based; conditions: Homo sapiens, MOLM-14, 192 h; MOLM14 (MLL-AF9), 8 days, confluence as measure of spheroid size; read-out: spheroid assay_OneTime MOLM14 IC50
Experimental: (§1) The anti-proliferative effect of menin/MLL protein/protein interaction inhibitor test compounds was assessed in human leukemia cell lines. The cell line MOLM14 harbors a MLL translocation and expresses the MLL fusion proteins MLL-AF9, respectively, as well as the wildtype protein from the second allele. […] KO-52 was used as a control cell line containing two MLL (KMT2A) wildtype alleles in order to exclude compounds that display general cytotoxic effects.
MOLM14 cells were cultured in RPMI-1640 (Sigma Aldrich) supplemented with 10% heat-inactivated fetal bovine serum (HyClone), 2 mM L-glutamine (Sigma Aldrich) and 50 µg/ml gentamycin (Gibco). KO-52 cell lines were propagated in alpha-MEM (Sigma Aldrich) supplemented with 20% heat-inactivated fetal bovine serum (HyClone), 2 mM L-glutamine (Sigma Aldrich) and 50 µg/ml gentamycin (Gibco).
In order to assess the anti-proliferative effects, 200 MOLM14 cells, or 300 KO-52 cells were seeded in 200 μl media per well in 96-well round bottom, ultra-low attachment plates (Costar, catalogue number 7007). Cell seeding numbers were chosen based on growth curves to ensure linear growth throughout the experiment. Test compounds were added at different concentrations and the DMSO content was normalized to 0.3%. Cells were incubated for 8 days at 37° C. and 5% CO2. Spheroid like growth was measured in real-time by live-cell imaging (IncuCyteZOOM, Essenbio, 4× objective) acquiring images at day 8. Confluence (%) as a measure of spheroid size was determined using an integrated analysis tool.
In order to determine the effect of the test compounds over time, the confluence in each well as a measure of spheroid size, was calculated. Confluence of the highest dose of a reference compound was used as baseline for the LC (Low control) and the confluence of DMSO treated cells was used as 0% cytotoxicity (High Control, HC).
Absolute IC50 values were calculated as percent change in confluence as follows:
LC=Low Control: cells treated with e.g. 1 μM of the cytotoxic agent staurosporin, or e.g. cells treated with a high concentration of an alternative reference compound
GraphPad Prism (version 7.00) was used to calculate the IC50. Dose-response equation was used for the plot of % Effect vs Log10 compound concentration with a variable slope and fixing the maximum to 100% and the minimum to 0%.

[2] = target: T1, Menin/MLL (Homo sapiens, UniProt O00255, T541A); assay: Menin/MLL homogenous time-resolved fluorescence (HTRF) assay; type: binding; conditions: 30 min incubation of test compound with terbium chelate-labeled menin; FITC-MBM1 peptide
T1 construct: Menin (a.a 1-610-6xhis tag)
T1 sequence (O00255 with tags, fused parts or gaps T541A): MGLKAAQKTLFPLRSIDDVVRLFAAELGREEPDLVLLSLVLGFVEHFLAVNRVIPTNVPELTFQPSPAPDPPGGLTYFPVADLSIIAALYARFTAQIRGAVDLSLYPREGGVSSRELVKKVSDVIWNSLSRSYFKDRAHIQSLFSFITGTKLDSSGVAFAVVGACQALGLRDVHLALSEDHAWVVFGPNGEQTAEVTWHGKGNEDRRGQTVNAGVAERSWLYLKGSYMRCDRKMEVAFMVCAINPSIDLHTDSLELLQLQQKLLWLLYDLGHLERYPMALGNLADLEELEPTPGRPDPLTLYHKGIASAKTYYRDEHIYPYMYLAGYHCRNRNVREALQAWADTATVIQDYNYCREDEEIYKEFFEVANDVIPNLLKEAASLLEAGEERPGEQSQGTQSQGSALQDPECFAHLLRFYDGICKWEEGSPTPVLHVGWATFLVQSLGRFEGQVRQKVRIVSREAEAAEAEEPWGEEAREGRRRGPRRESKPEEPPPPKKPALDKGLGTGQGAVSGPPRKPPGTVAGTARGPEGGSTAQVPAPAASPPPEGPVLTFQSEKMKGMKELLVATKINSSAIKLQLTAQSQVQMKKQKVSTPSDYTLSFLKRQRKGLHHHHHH
Experimental: 1) Menin/MLL homogenous time-resolved fluorescence (HTRF) assay
To an untreated, white 384-well microtiter plate was added 40 nL 200X test compound in DMSO and 4 μL 2X terbium chelate-labeled menin (vide infra for preparation) in assay buffer (40 mM Tris-HCl, pH 7.5, 50 mM NaCl, 1 mM DTT (dithiothreitol) and 0.05% Pluronic F-127). After incubation of test compound and terbium chelate-labeled menin for 30 min at ambient temperature, 4 μL 2X FITC-MBM1 peptide (FITC-β-alanine-SARWRFPARPGT-NH2 (SEQ ID NO: 2)) (“FITC” means fluorescein isothiocyanate) in assay buffer was added, the microtiter plate centrifuged at 1000 rpm for 1 min and the assay mixtures incubated for 15 min at ambient temperature. The relative amount of menin FITC--MBM1 complex present in an assay mixture is determined by measuring the homogenous time-resolved fluorescence (HTRF) of the terbium/FITC donor/acceptor fluorphore pair using an EnVision microplate reader (ex. 337 nm/terbium em. 490 nm/FITC em. 520 nm) at ambient temperature. The degree of fluorescence resonance energy transfer (the HTRF value) is expressed as the ratio of the fluorescence emission intensities of the FITC and terbium fluorophores (F^em 520 nm/F^em 490 nm). The final concentrations of reagents in the binding assay are 200 pM terbium chelate-labeled menin, 75 nM FITC-MBM1 peptide and 0.5% DMSO in assay buffer. Dose-response titrations of test compounds are conducted using an 11 point, four-fold serial dilution scheme, starting typically at 10 μM.
Compound potencies were determined by first calculating % inhibition at each compound concentration according to equation 1: […]
Where LC and HC are the HTRF values of the assay in the presence or absence of a saturating concentration of a compound that competes with FITC-MBM1 for binding to menin, and HTRF^compound is the measured HTRF value in the presence of the test compound. HC and LC HTRF values represent an average of at least 10 replicates per plate.
Where Bottom and Top are the lower and upper asymptotes of the dose-response curve, respectively, IC50 is the concentration of compound that yields 50% inhibition of signal and h is the Hill coefficient. IC50 values below 0.1 nM in the HTRF assay were reported as 0.1 nM in the Table below (detection limit).
Preparation of Terbium cryptate labeling of Menin: Menin (a.a 1-610-6xhis tag, 2.3 mg/mL in 20 mM Hepes (2-[4-(2-Hydroxyethyl)-1-piperazinyl]ethane sulfonic acid), 80 mM NaCl, 5 mM DTT (Dithiothreitol), pH 7.5) was labeled with terbium cryptate as follows. 200 μg of Menin was buffer exchanged into lx Hepes buffer. 6.67 μM Menin was incubated with 8-fold molar excess NHS (N-hydroxysuccinimide)-terbium cryptate for 40 minutes at room temperature. Half of the labeled protein was purified away from free label by running the reaction over a NAP5 column with elution buffer (0.1M Hepes, pH 7+0.1% BSA (bovine serum albumin)). The other half was eluted with 0.1 M phosphate buffered saline (PBS), pH7. 400 μl of eluent was collected for each, aliquoted and frozen at −80° C. The final concentration of terbium-labeled Menin protein was 115 μg/mL in Hepes buffer and 85 μg/mL in PBS buffer, respectively.

[3] = test system: KO-52 cells; assay: Proliferation assay (spheroid assay) in KO-52 control cell line; type: cell-based; conditions: Homo sapiens, 192 h; KO-52 (MLL wildtype control), 8 days, confluence as measure of spheroid size; read-out: spheroid assay_OneTime KO-52 IC50
Experimental: as §1
MOLM14 cells were cultured in RPMI-1640 (Sigma Aldrich) supplemented with 10% heat-inactivated fetal bovine serum (HyClone), 2 mM L-glutamine (Sigma Aldrich) and 50 µg/ml gentamycin (Gibco). […]
In order to assess the anti-proliferative effects, 200 MOLM14 cells, or 300 KO-52 cells were seeded in 200 μl media per well in 96-well round bottom, ultra-low attachment plates (Costar, catalogue number 7007). […] Spheroid like growth was measured in real-time by live-cell imaging (IncuCyteZOOM, Essenbio, 4× objective) acquiring images at day 8. Confluence (%) as a measure of spheroid size was determined using an integrated analysis tool.
In order to determine the effect of the test compounds over time, the confluence in each well as a measure of spheroid size, was calculated. […]
Absolute IC50 values were calculated as percent change in confluence as follows: […]

Compound | IC50 [1] [nM] | IC50 [2] [nM] | IC50 [3] [nM]
C=CCN(C)CCCC(C(C)C)N1CC2(CCN(c3ncnnc3Oc3ccc(F)cc3C(=O)N(CC)C(C)C)C2)C1 (single isomer, unassigned) [Compound 12] | 29 |  | 
CC(C)N(C(=O)c1cc(F)ccc1Oc1nncnc1N1CCC2(C1)CN(C(CC(O)CN(C)C)C(C)(C)C)C2)C(C)C (single isomer, unassigned) [Compound 23] |  | 4.57 | 
C#CCN(C)CCCC(C(C)C)N1CC2(CCN(c3ncnnc3Oc3ccc(F)cc3C(=O)N(CC)C(C)C)C2)C1 (single isomer, unassigned) [Compound 11] | 60 |  | 
CCN(C(=O)c1cc(F)ccc1Oc1nncnc1N1CCC2(C1)CN(C(CCCNCCSC)C(C)C)C2)C(C)C (single isomer, unassigned) [Compound 3] | 5 |  | 
CCN(C)C[C@@H](O)C[C@H](N1CC2(CCN(c3ncnnc3Oc3ccc(F)cc3C(=O)N(CC)C(C)C)C2)C1)C(C)(C)C (single isomer, unassigned) [Compound 25] |  | 6.46 | 
CCN(C(=O)c1cc(F)ccc1Oc1nncnc1N1CCC2(C1)CN(C(CCCNCCOC(F)F)C(C)C)C2)C(C)C (single isomer, unassigned) [Compound 7] | 7 | 0.121 | 
CCN(C(=O)c1cc(F)ccc1Oc1nncnc1N1CCC2(C1)CN(C(CCCNCCOC(F)(F)F)C(C)C)C2)C(C)C (single isomer, unassigned) [Compound 4] | 21 | 0.208 | 
CCN(C(=O)c1cc(F)ccc1Oc1nncnc1N1CCC2(C1)CN(C(CCCN(C)CCOC)C(C)(C)C)C2)C(C)C (single isomer, unassigned) [Compound 13a] |  | 1.97 | 
CCN(C(=O)c1cc(F)ccc1Oc1nncnc1N1CCC2(C1)CN(C(CCCN(C)CCOCCCCN)C(C)C)C2)C(C)C (single isomer, unassigned) [Compound 6] | 100 |  | 
CCN(C(=O)c1cc(F)cc(Br)c1Oc1nncnc1N1CCC2(C1)CN([C@H](CCCN(C)CCOC)C(C)C)C2)C(C)C [Compound 21] |  | 13.7 | 
CCN(C(=O)c1cc(F)ccc1Oc1nncnc1N1CCC2(C1)CN([C@H](CCN(C)CCS(N)(=O)=O)C(C)C)C2)C(C)C (single isomer, unassigned) [Compound 20] | 430 | 0.29 | 
CC(C)N(C(=O)c1cc(F)ccc1Oc1nncnc1N1CCC2(C1)CN(C(CC(O)CN(C)C)C(C)(C)C)C2)C(C)C (single isomer, unassigned) [Compound 22] |  | 18.2 | 
CCN(C)C[C@H](O)C[C@@H](N1CC2(CCN(c3ncnnc3Oc3ccc(F)cc3C(=O)N(CC)C(C)C)C2)C1)C(C)(C)C (single isomer, unassigned) [Compound 24] |  | 35.5 | 

Continued, in another order:

IC50 [1] [nM] | IC50 [2] [nM] | Compound | IC50 [3] [nM]
460 |  | COCCN(C)CCC[C@H](C(C)C)N1CC2(CCN(c3ncnnc3Oc3ccc(F)cc3C(=O)N(CCCCN)C(C)C)C2)C1 (single isomer, unassigned) [Compound 10] | 
16 | 0.182 | CCN(C(=O)c1cc(F)ccc1Oc1nncnc1N1CCC2(C1)CN(C(CCCN(C)CCOC(F)F)C(C)C)C2)C(C)C (single isomer, unassigned) [Compound 8] | 
32 |  | COCCN(C)CCC[C@H](C(C)C)N1CC2(CCN(c3ncnnc3Oc3ccc(F)cc3C(=O)N(CCO)C(C)C)C2)C1 [Compound 19] | 
470 | 0.331 | COCCN(C)CCC[C@H](C(C)C)N1CC2(CCN(c3ncnnc3Oc3ccc(F)cc3C(=O)N(CCNC(C)=O)C(C)C)C2)C1 [Compound 15] | 
50 |  | CCN(C(=O)c1cc(F)ccc1Oc1nncnc1N1CCC2(C1)CN(C(CCCN(C)CCSC)C(C)C)C2)C(C)C (single isomer, unassigned) [Compound 1] | 11900
 | 79.3 | CCN(CC(C)O)C(=O)c1cc(F)ccc1Oc1nncnc1N1CCC2(C1)CN(C(CCCN(C)CCOC)C(C)C)C2 (single isomer, unassigned) [Compound 17] | 
 | 2.97 | CCN(CC(C)O)C(=O)c1cc(F)ccc1Oc1nncnc1N1CCC2(C1)CN(C(CCCN(C)CCOC)C(C)C)C2 (single isomer, unassigned) [Compound 16] | 
 | 35.5 | CCN(C[C@@H](C)O)C(=O)c1cc(F)ccc1Oc1nncnc1N1CCC2(C1)CN([C@H](CCCN(C)CCOC)C(C)C)C2 (single isomer, unassigned) [Compound 18] | 
> 940 | 6.66 | CCN(CC(C)O)C(=O)c1cc(F)ccc1Oc1nncnc1N1CCC2(C1)CN(C(CCCN(C)CCOC)C(C)C)C2 (stereo not drawn) [Compound 14] | 
220 | 0.11 | CCN(C(=O)c1cc(F)ccc1Oc1nncnc1N1CCC2(C1)CN(C(CCCN(C)CCOCCN)C(C)C)C2)C(C)C (single isomer, unassigned) [Compound 5] | 
190 |  | COCCN(C)CCC[C@H](C(C)C)N1CC2(CCN(c3ncnnc3Oc3ccc(F)cc3C(=O)N(CCN)C(C)C)C2)C1 (single isomer, unassigned) [Compound 9] | 
21 |  | CCN(C(=O)c1cc(F)ccc1Oc1nncnc1N1CCC2(C1)CN(C(CCCN(C)CCOC)C(C)(C)C)C2)C(C)C (single isomer, unassigned) [Compound 13b] | 
